The values below come from US9776987B2, “Amide derivatives for GPR119 agonist” (CHONG KUN DANG PHARMACEUTICAL CORP., priority 2013, dated 2017).

Converted amounts (≈) assume the structure as drawn. Where two headings read alike, the source gives them in different places.

Broadly, the EC50 is the concentration needed to bring the measured effect to its halfway point. The term solubility denotes how much of the substance goes into solution per volume.

The target in one data set is T1, human GPR119 receptor (Homo sapiens, UniProt Q8TDV5).
T1 construct: host or cells: GeneBLAzer T-Rex GPR 119 CHO-K1 DA cells (CHO-K1)
T1 sequence (Q8TDV5 1-335): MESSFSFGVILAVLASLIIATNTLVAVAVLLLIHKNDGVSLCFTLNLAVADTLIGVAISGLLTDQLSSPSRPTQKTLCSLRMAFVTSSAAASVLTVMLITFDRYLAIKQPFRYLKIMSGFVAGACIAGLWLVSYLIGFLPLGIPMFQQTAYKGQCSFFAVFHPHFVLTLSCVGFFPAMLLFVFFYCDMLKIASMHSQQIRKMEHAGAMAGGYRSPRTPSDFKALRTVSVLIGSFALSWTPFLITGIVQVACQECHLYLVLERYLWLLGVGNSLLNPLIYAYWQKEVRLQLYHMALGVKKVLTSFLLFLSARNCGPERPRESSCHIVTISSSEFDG
Put plainly: Activity test for human GPR119 receptor (GeneBLAzer T-Rex GPR 119 CHO-K1 DA cells). Format: cell-based. As to conditions: for EC50: human GPR119 receptor expressing CHO-K1 cells, 5 hours treatment, read-out: hGPR119 EC50; for activity for human GPR119 receptor (in words): judgement on the EC50 values of Table 11. On the procedure: 1. Human GPR119 Receptor Cell
As a human GPR119 receptor expression cell for this test, the cell line “GeneBLAzer™ T-Rex GPR 119 CHO-K1 DA cells” that is commercially available from Invitrogen, was used. The cell was incubated in the DMEM media containing 1% dialyzed fetal bovine serum etc. The cell incubator was kept at constant temperature and constant humidity of 37° C., 5% CO2.
2. Activity Test for Human GPR119 Receptor
The human GPR119 receptor expressing cell was used to this test. Each of test compounds was added to be final concentrations of 0.1, 1, 10 μM in 96 well and tested in duplicate. A fixed amount of cell was added to each well of 96 well separately, and then treated with the test compound for 5 hours. After treatment of color development agent for 2 hours, the fluorescence value was determined with plate reader. To the luminous wavelength of control well, which was not treated with the sample, but in which only a vehicle […] was contained, the ratio of the luminous wavelength of test well, which was treated with the sample, was calculated, and then converted to obtain EC50 value.
3. Statistical Processing
All the results were expressed as mean±SD, and each test groups and the control group were compared using student's t-test to adjudge the effects of each test groups.

Another data set deals with Male C57/6J Jms mice. Put plainly: Glucose tolerance test in normal mouse. In kind it is in vivo. On the procedure:
1. Method of Glucose Tolerance Test
Male C57/6J Jms mice of 6-7 weeks of age were fasted for 16 hours before the start of glucose tolerance test. […]
Before compound administration, that is, at 0 hour, whole blood glucose level was determined using a Glucometer (ACCU-CHEK, Roche). At 30 minutes after compound administration, whole blood glucose level was determined once again, and 20% glucose (2 g/kg/10 mL) was administered orally. Whole blood glucose level was determined at 20, 40, 60, 80, and 120 minutes after 20% glucose administration. Whole blood glucose level vs. Time was graphicalized. Area under the curve (AUC) of whole blood glucose level was obtained using GraphPad Prism 4.0. The effect of glucose tolerance was adjudged with the corrected area under the curve (cAUC), on which the base value of glucose area under the curve was excluded.

The nature of data set [1]: Solubility test of GPR 119 agonist compounds (Nephelostar). Format: physicochemical. Particulars: aqueous with cosolvent or surfactant or cyclodextrin, kinetic from dmso stock. On the procedure: 1. Method of Solubility Test
Each test compounds were dissolved in 5% DMSO aqueous solution as a solvent at several concentrations. When a laser was irradiated to the solution, the particles, which are not dissolved in the solvent, scatter the light. The level of the scattered light is dependent to the number of the particles, so the solubility of the test compound in the solution can be determined using the relationship. As the test equipment, Nephelostar was used.

The mark [2] stands for this setting: 10 mg/kg, whole blood glucose AUC after oral glucose 2 g/kg, 10 mg/kg.
Where [3] appears, read: pH 2, 5% DMSO aqueous solution, read-out: Solubility pH 2.
Where [4] appears, read: pH 4, 5% DMSO aqueous solution, read-out: Solubility pH 4.
[5] abbreviates: pH 6, 5% DMSO aqueous solution, read-out: Solubility pH 6.
Where [6] appears, read: pH 8, 5% DMSO aqueous solution, read-out: Solubility pH 8.

Take `NC(=O)[C@@H]1C[C@@H](O)CN1C(=O)c1ccc(-c2ccc(OCC3CCN(CC4(C(F)(F)F)CCC4)CC3)cc2)cc1` [Compound 1199, (2S,4R)-4-hydroxy-1-(4′-((1-((1-(trifluoromethyl)cyclobutyl)methyl)piperidin-4-yl)methoxy)biphenylcarbonyl)pyrrolidin-2-carboxamide]: the EC50 on human GPR119 receptor was 12 nM. The “Decrease % of AUC at 10 mg/kg” value in the data set with Male C57/6J Jms mice (setting [2]) is recorded as 31%.
`CC(C)(CN1CCC(COc2ccc(-c3ccc(C(=O)N4C[C@H](O)C[C@H]4C(N)=O)c(F)c3)cn2)CC1)C(F)(F)F` [Compound 1208, (2S,4R)-1-(2-fluoro-4-(6-((1-(3,3,3-trifluoro-2,2-dimethylpropyl)piperidin-4-yl)methoxy)pyridin-3-yl)benzoyl)-4-hydroxypyrrolidin-2-carboxamide]: at human GPR119 receptor, the 50% effective concentration (EC50) was determined as 3 nM and the “activity for human GPR119 receptor (in words)” value (“activity” for short) was “excellent activity”. Moreover, the “Decrease % of AUC at 10 mg/kg” value with Male C57/6J Jms mice (setting [2]) is on record as 38%.
As for `CC(C)(CN1CCC(COc2ccc(-c3ccc(C(=O)N4C[C@H](O)C[C@H]4C(N)=O)c(F)c3)c(F)c2)CC1)C(F)(F)F` [Compound 1240, (2S,4R)-1-(2′,3-difluoro-4′-((1-(3,3,3-trifluoro-2,2-dimethylpropyl)piperidin-4-yl)methoxy)biphenylcarbonyl)-4-hydroxypyrrolidin-2-carboxamide], at human GPR119 receptor, the EC50 came out at 0.1 nM. Also, the “Decrease % of AUC at 10 mg/kg” value in the data set on Male C57/6J Jms mice (setting [2]) is 35%.
Take `C[C@@]1(C(N)=O)C[C@@H](O)CN1C(=O)c1ccc(-c2ccc(OCC3CCN(CC4(C(F)(F)F)CCC4)CC3)cn2)cc1F` [Compound 1290, (2S,4R)-1-(2-fluoro-4-(5-((1-((1-(trifluoromethyl)cyclobutyl)methyl)piperidin-4-yl)methoxy)pyridin-2-yl)benzoyl)-4-hydroxy-2-methylpyrrolidin-2-carboxamide]: the EC50 on human GPR119 receptor was 6 nM. Moreover, the “activity” value at human GPR119 receptor was “excellent activity”. The solubility in data set [1] (setting [3]) is > 296 µg/mL; in data set [1] (setting [4]), > 296 µg/mL; in data set [1] (setting [5]), > 296 µg/mL; in data set [1] (setting [6]), 102 µg/mL (≈ 172 µM).
Take `CCC(F)(CC)CN1CCC(COc2ccc(-c3ccc(C(=O)N4C[C@H](O)C[C@@]4(C)C(N)=O)cc3F)nc2)CC1` [Compound 1292, (2S,4R)-1-(4-(5-((1-(2-ethyl-2-fluorobutyl)piperidin-4-yl)methoxy)pyridin-2-yl)-3-fluorobenzoyl)-4-hydroxy-2-methylpyrrolidin-2-carboxamide]: at human GPR119 receptor, the 50% effective concentration (EC50) was determined as 12 nM. Besides, the solubility in data set [1] (setting [3]), in data set [1] (setting [4]), in data set [1] (setting [5]) and in data set [1] (setting [6]) was > 279 µg/mL in each case.
`CC(C)(CN1CCC(COc2ccc(-c3ccc(C(=O)N4C[C@H](O)C[C@@]4(C)C(N)=O)c(F)c3)nc2)CC1)C(F)(F)F` [Compound 1294, (2S,4R)-1-(2-fluoro-4-(5-((1-(3,3,3-trifluoro-2,2-dimethylpropyl)piperidin-4-yl)methoxy)pyridin-2-yl)benzoyl)-4-hydroxy-2-methylpyrrolidin-2-carboxamide]: the EC50 at human GPR119 receptor came to 19 nM. Besides, on human GPR119 receptor, the “activity” value is “excellent activity”. The solubility in data set [1] (setting [3]) was > 290 µg/mL; in data set [1] (setting [4]), > 290 µg/mL; in data set [1] (setting [5]) it was 203 µg/mL (≈ 350 µM); in data set [1] (setting [6]), 52 µg/mL (≈ 89.6 µM).
With `CC(C)(CN1CCC(COc2ccc(-c3ccc(C(=O)N4C[C@H](O)C[C@H]4C(N)=O)cc3)nc2)CC1)C(F)(F)F` [Compound 1322, (2S,4R)-4-hydroxy-1-(4-(5-((1-(3,3,3-trifluoro-2,2-dimethylpropyl)piperidin-4-yl)methoxy)pyridin-2-yl)benzoyl)pyrrolidin-2-carboxamide], at human GPR119 receptor, the EC50 worked out at 6 nM. Further, the “activity” value at human GPR119 receptor is listed as “excellent activity”. The solubility in data set [1] (setting [3]) was > 274 µg/mL; in data set [1] (setting [4]) it was > 274 µg/mL; in data set [1] (setting [5]), > 274 µg/mL; in data set [1] (setting [6]), 89 µg/mL (≈ 162 µM).
On to `CC(C)(CN1CCC(COc2ccc(-c3ccc(C(=O)N4C[C@H](O)C[C@H]4C(N)=O)cc3F)nc2)CC1)C(F)(F)F` [Compound 1323, (2S,4R)-1-(3-fluoro-4-(5-((1-(3,3,3-trifluoro-2,2-dimethylpropyl)piperidin-4-yl)methoxy)pyridin-2-yl)benzoyl)-4-hydroxypyrrolidin-2-carboxamide], for which the EC50 on human GPR119 receptor came out at 4 nM. In addition, the “activity” value at human GPR119 receptor was “excellent activity”. The solubility in data set [1] (setting [3]) is > 283 µg/mL; in data set [1] (setting [4]) it was > 283 µg/mL; in data set [1] (setting [5]), 355 µg/mL (≈ 627 µM); in data set [1] (setting [6]), 88 µg/mL (≈ 155 µM).
For `C[C@@]1(C(N)=O)C[C@@H](O)CN1C(=O)c1ccc(-c2ccc(OCC3CCN(CC4(C(F)(F)F)CCC4)CC3)nc2)c(F)c1` [Compound 1325, (2S,4R)-1-(3-fluoro-4-(6-((1-((1-(trifluoromethyl)cyclobutyl)methyl)piperidin-4-yl)methoxy)pyridin-3-yl)benzoyl)-4-hydroxy-2-methylpyrrolidin-2-carboxamide], the EC50 on human GPR119 receptor stood at 14 nM. At human GPR119 receptor, the “activity” value is on record as “excellent activity”. For the same compound, the solubility was > 296 µg/mL in data set [1] (setting [3]), > 296 µg/mL in data set [1] (setting [4]), > 296 µg/mL in data set [1] (setting [5]) and 114 µg/mL (≈ 192 µM) in data set [1] (setting [6]).
As for `C[C@@]1(C(N)=O)C[C@@H](O)CN1C(=O)c1ccc(-c2ccc(OCC3CCN(CC4(C(F)(F)F)CCC4)CC3)cn2)c(F)c1` [Compound 1329, (2S,4R)-1-(3-fluoro-4-(5-((1-((1-(trifluoromethyl)cyclobutyl)methyl)piperidin-4-yl)methoxy)pyridin-2-yl)benzoyl)-4-hydroxy-2-methylpyrrolidin-2-carboxamide], the EC50 on human GPR119 receptor amounted to 10 nM. Besides, the “activity” value at human GPR119 receptor is given as “excellent activity”. Besides, the solubility is > 296 µg/mL in data set [1] (setting [3]), > 296 µg/mL in data set [1] (setting [4]), > 296 µg/mL in data set [1] (setting [5]) and 112 µg/mL (≈ 189 µM) in data set [1] (setting [6]).
Regarding `CC(C)c1noc(N2CCC(COc3ccc(-c4ccc(S(C)(=O)=O)cc4)nc3)CC2)n1` [GSK-1292263, reference compound], the “Decrease % of AUC at 10 mg/kg” value with Male C57/6J Jms mice (10 mg/kg, whole blood glucose AUC after oral glucose 2 g/kg) is on record as 10~20%.
